Values belong to the compound of their own block, whether it stands above or below them.
Assays:
Sir2 = Sir2 (Saccharomyces cerevisiae, UniProt P06700); details: cited from earlier work
HDAC = details: in vitro or in vivo; cited from earlier work
retinal ganglion cells = details: treated animals; cited from earlier work
[1] = target: cytochrome oxidase (Complex IV) (Homo sapiens, UniProt P00395); details: cited from earlier work
[2] = topical; cited from earlier work
[3] = Dilution of liquid resveratrol formulations with purified water (precipitation); type: physicochemical; details: DS dissolved in Gelucire 44/14 at 100 mg/g
Procedure: A liquid formulation was prepared by dissolving resveratrol (drug substance, DS) and monoacyl phospholipid in a mixture of PEG 300 and propyleneglycol. The ratio between the DS and phospholipid was 1/12 w/w in PEG 300/propyleneglycol 1/1 w/was solvent mixture. The formulation, which has a 5% drug load, was clear after dilution in purified water for more than 4 hours. Starting from Formulation 13, the drug load was increased to 10% using the same 1/1 w/w ratio of Vit E TPGS/DS and replacing propyleneglycol with Labrasol™. Upon one-fold dilution with water a slight DS precipitation was observed. […] After a few hours, some oil droplets were visible on the surface of the water phase. To further improve Formulation 11, the use of the two lipids Gelucire™ 44/14 and Labrasol™ were explored as main components in the formulations. […] The DS precipitated in the form of oil-like droplets. […] Higher drug loads can be achieved by using the two lipids in combination with ethanol as additional solvent/excipient to fully solubilize the drug in the formulation.

C. elegans = details: in vivo; cited from earlier work
mammalian cells = details: cited from earlier work
insulin resistant cells = details: cited from earlier work

Sir2, sequence (P06700 whole entry): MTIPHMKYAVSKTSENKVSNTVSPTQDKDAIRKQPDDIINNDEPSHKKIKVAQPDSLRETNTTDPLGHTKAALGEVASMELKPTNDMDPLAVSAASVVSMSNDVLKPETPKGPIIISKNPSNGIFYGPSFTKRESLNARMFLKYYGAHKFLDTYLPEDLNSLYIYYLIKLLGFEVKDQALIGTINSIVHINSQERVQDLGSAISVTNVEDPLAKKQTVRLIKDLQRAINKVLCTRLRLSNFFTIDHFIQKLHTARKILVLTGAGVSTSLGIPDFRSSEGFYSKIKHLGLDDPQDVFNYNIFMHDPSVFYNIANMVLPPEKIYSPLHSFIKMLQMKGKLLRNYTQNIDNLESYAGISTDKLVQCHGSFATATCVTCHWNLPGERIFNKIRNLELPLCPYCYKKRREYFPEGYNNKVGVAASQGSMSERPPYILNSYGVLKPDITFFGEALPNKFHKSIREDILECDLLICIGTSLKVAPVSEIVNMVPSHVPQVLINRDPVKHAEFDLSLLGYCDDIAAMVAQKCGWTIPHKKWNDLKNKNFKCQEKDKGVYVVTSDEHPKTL

Compound: CC(/C=C/C(=O)NO)=C\[C@@H](C)C(=O)c1ccc(N(C)C)cc1 [TSA, trichostatin A]
sensitivity of Sir2 to histone deacetylase inhibitors (Sir2): insensitive
inhibition of HDAC (concentration level in words) (HDAC): potent inhibitor

Compound: N=C(N)NN [aminoguanidine]
loss of retinal ganglion cells (retinal ganglion cells): reduction in the loss of retinal ganglion cells

Compound: depudecin
inhibition of HDAC (concentration level in words) (HDAC): micromolar concentrations

Compound: [N]=O [Nitric oxide]
concentration that inhibits cytochrome oxidase (Complex IV) [1]: about 1 micromolar

Compound: O=C(/C=C/c1cccc(C(=O)NO)c1)NO [CBHA, m-carboxy-cinnamic acid bishydroxamic acid]
inhibition of HDAC (concentration level in words) (HDAC): micromolar concentration or lower

Compound: C/C=C1\NC(=O)[C@H]2CSSCC/C=C/[C@H](CC(=O)N[C@H](C(C)C)C(=O)N2)OC(=O)[C@H](C(C)C)NC1=O [Depsipeptide, depsipeptide]
inhibition of HDAC (concentration level in words) (HDAC): micromolar concentrations

Compound: CC(C)(C)NC[C@H](O)COc1nsnc1N1CCOCC1 [timolol]
time for IOP to fall [2]: 30 min
time of peak effects on IOP [2]: 1 to 2 h

precipitation after dilution with purified water [3]: precipitated in a fast manner
Compound: Oc1ccc(/C=C/c2cc(O)cc(O)c2)cc1 [resveratrol, 3,5,4′-trihydroxystilbene]
fat accumulation in C. elegans (C. elegans): prevent fat accumulation
fat mobilization in C. elegans (C. elegans): promotes fat mobilization
adipogenesis in mammalian cells (mammalian cells): inhibit adipogenesis
fat mobilization in mammalian cells (mammalian cells): stimulate fat mobilization
insulin sensitivity in insulin resistant cells (insulin resistant cells): at least partially restore insulin sensitivity

From patent US20110009496A1, “RESVERATROL FORMULATIONS” (SIRTRIS PHARMACEUTICAS, INC., priority 2008, published 2011)
